{"source": "patent US20260199362A1", "about": "“VITAMIN B2 FOR USE IN IMPROVING GUT HEALTH” (DSM IP Assets B.V., priority 2022, published 2026)", "system": "Lactobacillus rhamnosus GG (Lactobacillus rhamnosus DSM 32550)", "assay": "Short-term batch-fermentation colon model (M-SHIME) with qPCR of Lactobacillus rhamnosus GG level", "assay_type": "cell-based", "procedure": "A short-term batch-fermentation experiment was carried out by ProDigest, consisting of a colonic incubation of a representative dose of a selected vitamin with a representative bacterial inoculum under simulated conditions for the proximal large intestine. In the current experiment, the bacterial inocula were derived from fresh fecal samples of six different healthy adult donors. […]\nIn this study, the Lactobacillus rhamnosus GG equivalent Lactobacillus rhamnosus DSM 32550 (Biocare Copenhagen) was added to the colon model containing the donor samples, alone or in combination with vitamin B2 (see Table 1). After 48 h of incubation, the abundance of the added strain was analyzed using primers that are specific for Lactobacillus rhamnosus GG and its equivalent Lactobacillus rhamnosus DSM 32550. […]\nqPCR was performed on putative phage tail protein gene (NCBI reference NC_013198) to monitor the level of the supplemented probiotic Lactobacillus rhamnosus GG strain within the gut microbiome, as described previously (Brandt, Alatossava (2003)-Specific identification of certain probiotic Lactobacillus rhamnosus strains with PCR primers based on phage-related sequences). Samples were analyzed from the mucus environment following 48 h of incubation. […]", "data": [{"smiles": "Cc1cc2nc3c(=O)[nH]c(=O)nc-3n(C[C@H](O)[C@H](O)[C@H](O)CO)c2cc1C", "note": "[vitamin B2, riboflavin]", "values": [{"measurement": "copies of the Lactobacillus rhamnosus GG specific putative phage tail protein gene relative to control (Lactobacillus rhamnosus GG alone)", "setting": "vitamin B2 0.01667 g/L co-supplemented with L. rhamnosus GG 1*10^9 CFU, mucus environment, 48 h colonic incubation, fecal inocula of six healthy human donors, average, qPCR", "value": "around three"}, {"measurement": "levels of Lactobacillus rhamnosus GG in the colon model, as compared to the respective control", "setting": "vitamin B2 0.01667 g/L co-supplemented with L. rhamnosus GG, 48 h, six human donors, paired t-test, p<0.05", "value": "significantly increased"}]}]}
